The text below walks through data of publication PMC2849142 (Clinical and translational science, 2009).

For data set [1], the system named is AMPK. In words: AICAR-induced activation of AMPK in NRVMs. Type of data set: cell-based, rat. Conditions: for activity of AMPK following AICAR, as determined by ACC phosphorylation: NRVMs pre-treated 4h, then AICAR 1 mM 1h.
Data set [2] concerns NRVMs. In words: Rescue of sunitinib injury in NRVMs by AMPK activators. Conditions: cells pre-treated with AICAR, then exposed to sunitinib.
Data set [3] relates to Neonatal rat ventricular myocytes (NRVMs). In words: ATP content of cultured cardiomyocytes. Type of data set: cell-based.
The test system is the same in data set [4]. The experiment in a line: TUNEL staining of cultured cardiomyocytes. The data set is classed as cell-based.
The test system of data set [5] is NRVMs. The conditions noted are these: cited from earlier work.
A further data set addresses CAMKK1 (Homo sapiens, UniProt Q8N5S9). In words: Recombinant biochemical kinase assay, sunitinib vs CAMKK1.
The subject of data set [6] is C57Bl/6 mice. In words: Echocardiographic indices of sunitinib-treated mice. The conditions noted are these: 25 mg/kg/d in chow, 5 weeks, mean ± SD. The data set is classed as in vivo, mouse.
Data set [7] has as its system C57Bl/6 mice. The experiment in a line: Cardiomyocyte cross-sectional area on H&E-stained heart sections of treated mice. The data set is classed as in vivo, mouse. The conditions noted are these: 25 mg/kg/d, 5 weeks, p < 0.01 vs. vehicle, n = 4.
For data set [8], the system named is C57Bl/6 mice. The experiment in a line: Myocardial capillary density. Type of data set: in vivo, mouse. Conditions: 25 mg/kg/d, 5 weeks, isolectin B4, n = 3.
Data set [9] concerns AMPK. In words: Phospho-ACC immunoblot of heart lysates of treated mice. Type of data set: in vivo, mouse. The conditions noted are these: 25 mg/kg/d, 5 wks, p < 0.05 vs. control, n = 4 hearts. Background: Immunoblotting shows a protein as a band on a membrane.
Data set [10] concerns Neonatal rat ventricular myocytes (NRVMs). The experiment in a line: Mitochondrial membrane potential. Type of data set: cell-based. The conditions noted are these: 1 μM sunitinib, 12h.
The subject of data set [11] is AMPK. In words: Phospho-AMPK. Type of data set: cell-based, rat. Conditions: NRVMs, sunitinib 1 μM; p < 0.01 vs. control, n = 4.
Data set [12] relates to AMPK. In words: Phospho-ACC immunoblot in NRVMs. Type of data set: cell-based, rat. The conditions noted are these: sunitinib 1 μM, p < 0.01, n = 4.
The test system of a further data set is mTORC1. In words: Phospho-eEF2 immunoblot in NRVMs. The data set is classed as cell-based, rat. The conditions noted are these: sunitinib 1 μM, p < 0.01, n = 4.
The test system of another data set is RET. The conditions noted are these: read-out: IC50 vs RET; known sunitinib target; cited from earlier work.
A further data set has as its system patients. The conditions noted are these: cited from earlier work.
A further data set has as its system mitochondria. The conditions noted are these: cited from earlier work.
For data set [13] the following is noted: ref http://www.pfizer.com/files/products/uspi_sutent.pdf; cited from earlier work.

The structures appear in SMILES notation. Like-named read-outs stand apart in the source and are kept apart here.

CAMKK1, sequence (Q8N5S9 whole entry): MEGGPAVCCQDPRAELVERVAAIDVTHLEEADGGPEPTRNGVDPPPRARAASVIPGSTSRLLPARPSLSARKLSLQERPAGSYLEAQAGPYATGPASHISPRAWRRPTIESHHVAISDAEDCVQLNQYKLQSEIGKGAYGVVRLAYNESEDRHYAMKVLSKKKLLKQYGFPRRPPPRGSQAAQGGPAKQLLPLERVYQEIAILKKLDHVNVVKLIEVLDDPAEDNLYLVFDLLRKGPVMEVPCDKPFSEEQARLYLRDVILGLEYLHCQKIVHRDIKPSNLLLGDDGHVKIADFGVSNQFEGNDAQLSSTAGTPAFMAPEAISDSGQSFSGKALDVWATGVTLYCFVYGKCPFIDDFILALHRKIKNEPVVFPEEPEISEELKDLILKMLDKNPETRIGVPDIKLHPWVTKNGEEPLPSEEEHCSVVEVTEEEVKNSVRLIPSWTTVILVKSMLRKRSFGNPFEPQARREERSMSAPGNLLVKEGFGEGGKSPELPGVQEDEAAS

For `NC(=O)c1ncn([C@@H]2O[C@H](CO)[C@@H](O)[C@H]2O)c1N` [AICAR], the “AMPK signaling (phospho-ACC) in the setting of sunitinib” value in the data set with AMPK [1] (AICAR 1 mM 1h after sunitinib pre-treatment 4h) was “failed to increase AMPK signaling”. For the same compound, the “rescue of sunitinib toxicity by pre-treatment with the AMPK activator” value with NRVMs [2] is given as “failed to rescue”.

For `c1cc(-c2cnn3cc(-c4ccc(OCCN5CCCCC5)cc4)cnc23)ccn1` [Compound C], the “[ATP] in cardiomyocytes” value in data set [3] is “reduction in [ATP]”. Moreover, the “activity of AMPK following AICAR, as determined by ACC phosphorylation” value with AMPK [1] is reported as “Inhibition”. In addition, the “cardiomyocyte apoptosis (TUNEL)” value in data set [4] is listed as “induced apoptosis”.

With `CN(C)C(=N)N=C(N)N` [metformin], the “reduction of sunitinib injury in NRVMs” value with NRVMs [5] is “failed to reduce sunitinib injury”.

In general, IC50 refers to the concentration at which inhibition is half-maximal. As for `CCN(CC)CCNC(=O)c1c(C)[nH]c(/C=C2\C(=O)Nc3ccc(F)cc32)c1C` [sunitinib], the concentration for half-maximal inhibition (IC50) at CAMKK1 (IC50 vs CAMKK1 (range)) fell in the range of 4.5 to 6 µM. The IC50 on CAMKK1 (Mean IC50, recombinant biochemical kinase assays, two to seven sets of assays) was determined as 5.25 µM. Besides, in the data set on C57Bl/6 mice [6], the “EF (ejection fraction)” value was determined as 52.5 ± 6.85%, the “FS (fractional shortening)” value was found to be 31.3 ± 5.07%, the “LVEDD (left ventricular end-diastolic dimension)” value was determined as 3.51 ± 0.18 mm and the “LVPW (left ventricular posterior wall thickness)” value came out at 0.86 ± 0.06 mm. Also, the “LVW/BW (left ventricular mass normalized to body weight)” value in the data set on C57Bl/6 mice [6] turned out to be 4.49 ± 0.28 mg/g. In addition, the “LVESD (left ventricular end-systolic dimension)” value in the data set with C57Bl/6 mice [6] (P < 0.05 versus vehicle) is reported as 2.41 ± 0.27 mm. Also, the “cardiomyocyte size (cross-sectional area) on H & E-stained heart sections” value with C57Bl/6 mice [7] is recorded as “cardiomyocyte hypertrophy”. The myocardial capillary density entry in the data set with C57Bl/6 mice [8] is listed as “does not alter”. The “phosphorylation of ACC2 in the heart in vivo” value in the data set with AMPK [9] is given as “significantly reduced”. In addition, the “mitochondrial membrane potential (Δψm)” value in data set [10] is reported as “loss of Δψm”. The “[ATP] in cardiomyocytes” value in [3] (8h treatment, p < 0.05 vs. control) was “significantly reduced”. Also, the “phosphorylation of AMPK at the activating site (T172)” value in the data set with AMPK [11] is listed as “modest but consistent increase”. In addition, the “phosphorylation of ACC1/2” value in the data set on AMPK [12] is listed as “significantly reduced”. The “activity of AMPK following AICAR, as determined by ACC phosphorylation” value in the data set with AMPK [1] was “significantly reduced”. Further, the “phosphorylation of eEF2” value with mTORC1 is given as “marked increase”. For the same compound, in data set [4] (28 hrs treatment, p < 0.05 vs. control), the “cardiomyocyte apoptosis (TUNEL)” value is “induce cardiomyocyte apoptosis”. For the same compound, in the data set on RET, the IC50 was […]. For the same compound, the “patients developing congestive heart failure (CHF)” value in the data set on patients is reported as 8–15%. The “direct toxicity to mitochondria” value in the data set on mitochondria was “not directly toxic to mitochondria”. Besides, the volume of distribution in data set [13] is […].
